What was measured:
Type in all cases: cell-based
[1] = test system: pAKT in T47D (PI3Kα H1047R mutant) cells; assay: Inhibition of pAKT (alphaLISA Surefire Ultra AKT 1/2/3 pS473) in T47D cells; conditions: Homo sapiens; T47D (PI3Kα H1047R mutant) cells, 24 hr compound incubation, alphaLISA pS473; read-out: T47D (H1047R) pAKT 24 hr (IC50)
Method in brief: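 AlphaLISA read-out of AKT pS473 in lysates after roughly 24 h compound exposure at 37° C in HBSS. Ten concentrations, 1:4 dilutions from a 10.4 μm top dose. Percent of control uses alpelisib at 3.125 μm as background and DMSO as vehicle; four-parameter curve gives IC50.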

[2] = test system: T47D (PI3Kα H1047R mutant) cells; assay: Cell viability (CellTiter-Glo 2.0) in T47D cells; conditions: Homo sapiens, T47D, 72 h, approximately 72 hours
Method in brief: (§1)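 IC50 values derive from four-parameter fits of CellTiter-Glo luminescence expressed as percent of vehicle control. Cells (T47D or SKBR3) were plated at 1000/well the day before dosing and incubated about 72 h at 37° C with a 10-point, 1:4 series starting at 10 μm.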

[3] = test system: SKBR3 (PI3Kα wild type) cells; assay: Cell viability (CellTiter-Glo 2.0) in SKBR3 cells; conditions: Homo sapiens, SK-BR-3; SKBR3 (PI3Kα wild type) cells, approximately 72 hours, CellTiter-Glo 2.0; read-out: SKBR3 (WT) Viability IC50
Method in brief: as §1

Row | Compound | IC50 [1] [nM] | IC50 [2] [nM] | IC50 [3] [nM]
1 | COC[C@@H]1CN(c2nc3c([C@@H](C)Nc4ccc(Cl)nc4C(=O)O)cc(C)cc3nc2C#N)CC1(F)F (single isomer, unassigned) [Example 211A] | 5.7 | 78 | 6900
2 | Cc1cc([C@@H](C)Nc2ccc(Cl)nc2C(=O)O)c2nc(N3CC4(CC(F)C4)C3)c(C#N)nc2c1 [Example 258, (R)-6-chloro-3-((1-(2-cyano-3-(6-fluoro-2-azaspiro[3.3]heptan-2-yl)-7-methylquinoxalin-5-yl)ethyl)amino)picolinic acid] | 2.99 | 86 | 8700
3 | Cc1cc([C@@H](C)Nc2ccc(Cl)nc2C(=O)O)c2nc(N3C[C@H]4CO[C@H](C4)C3)c(C#N)nc2c1 (single isomer, unassigned) [Example 243B] | 0.52 | 50 | > 10000
4 | Cc1cc([C@@H](C)Nc2ccc(Cl)nc2C(=O)O)c2nc(N3CCN(c4cc(C)on4)CC3)c(C#N)nc2c1 [Example 201, (R)-6-chloro-3-((1-(2-cyano-7-methyl-3-(4-(5-methylisoxazol-3-yl)piperazin-1-yl)quinoxalin-5-yl)ethyl)amino)picolinic acid] | 0.27 | 10.5 | 7810
5 | C[C@@H](Nc1ccc(Cl)nc1C(=O)O)c1cc(C2CC2)cc2nc(C#N)c(N3CCC(F)(F)CC3)nc12 [Example 33, (R)-6-chloro-3-((1-(2-cyano-7-cyclopropyl-3-(4,4-difluoropiperidin-1-yl)quinoxalin-5-yl)ethyl)amino)picolinic acid] | 4.3 | 91.4 | 7430
6 | Cc1cc([C@@H](C)Nc2ccc(Cl)nc2C(=O)O)c2nc(N3C[C@H](CO)C(F)(F)C3)c(C#N)nc2c1 (single isomer, unassigned) [Example 210A] | 0.69 | 135 | > 10000
7 | Cc1cc([C@@H](C)Nc2ccc(Cl)nc2C(=O)O)c2nc(N3CCC(F)(F)CC3)c(C)nc2c1 [Example 35, (R)-6-chloro-3-((1-(3-(4,4-difluoropiperidin-1-yl)-2,7-dimethylquinoxalin-5-yl)ethyl)amino)picolinic acid] | 3.1 | 166 | 8290
8 | Cc1cc([C@@H](C)Nc2ccc(Cl)nc2C(=O)O)c2nc(N3CC4CC[C@@]4(F)C3)c(C#N)nc2c1 (single isomer, unassigned) [Example 244A] | 1.2 | 57 | > 10000
9 | Cc1cc([C@@H](C)Nc2ccc(Cl)nc2C(=O)O)c2nc(N3CCOCC3)c(C#N)nc2c1 [Example 58, (R)-6-chloro-3-((1-(2-cyano-7-methyl-3-morpholinoquinoxalin-5-yl)ethyl)amino)picolinic acid] | 1.8 | 24 | 3500
10 | Cc1cc([C@@H](C)Nc2ccc(Cl)nc2C(=O)O)c2nc(N3CCCC(C(F)(F)F)C3)c(C#N)nc2c1 (stereo partly drawn) [Example 45, 6-chloro-3-(((1R)-1-(2-cyano-7-methyl-3-(3-(trifluoromethyl)piperidin-1-yl)quinoxalin-5-yl)ethyl)amino)picolinic acid] | 6.8 | 115 | > 10000
11 | C[C@@H](Nc1ccc(Cl)nc1C(=O)O)c1cc(C(F)F)cc2nc(C#N)c(N3CCOCC3)nc12 [Example 231, (R)-6-chloro-3-((1-(2-cyano-7-(difluoromethyl)-3-morpholinoquinoxalin-5-yl)ethyl)amino)picolinic acid] | 1.3 | 25.8 | > 10000
12 | C[C@@H](Nc1ccc(Cl)nc1C(=O)O)c1cc(F)cc2nc(C#N)c(N3CCC(F)(F)CC3)nc12 [Example 26, (R)-6-chloro-3-((1-(2-cyano-3-(4,4-difluoropiperidin-1-yl)-7-fluoroquinoxalin-5-yl)ethyl)amino)picolinic acid] | 1.8 | 51.5 | 9800

— patent US20240391882A1 (Mirati Therapeutics, Inc., priority 2023, published 2024)
